Assay results as given in US20140127185A1, “METHODS AND COMPOSITIONS USING NEUROPROTECTIVE STEROIDS AND THROMBOLYTIC AGENTS” (priority 2012, published 2014).

Experiments:
occludin = test: Occludin in H/R-treated bEND3 cells (Western blot, immunofluorescence); assay type: cell-based, mouse
Experimental: (§1) An immortalized mouse brain endothelial cell line (bEND 3) is purchased from American Type Culture Collection (ATCC, VA, USA) and cultured in Dulbecco's modified Eagle Medium (DMEM, ATCC) supplemented with 10% fetal bovine serum (ATCC). bEND 3 cells are seeded onto the luminal side of a filter (0.4 μm pore size; Corning, Lowell, MCA) coated with fibronectin (5 μg/ml) in 12-well plates for a transendothelial electrical resistance (TEER) test; and in 100-mm dishes for Western blot studies. Cell cultures are incubated at 37° C. in a 5%/95% mixture of CO2 and atmospheric air, and the medium is replaced every 3 days.
(§2) Peri-infarct cortical tissue is processed for protein analysis. Tissues are homogenized in T-per (Pierce, Rockford, Ill.) containing protease inhibitor cocktail (P8340, Sigma). Homogenates are centrifuged for 15 minutes at 13,000 g. 40 μg of total protein is separated on 8-12% gel and transferred onto polyvinylidene difluoride (Millipore, Mass., USA; PVDF) membranes at 300 mA for 2 hours. To measure the level of immunoglobulin, the membranes were incubated overnight at 4° C. with anti Rat IgG conjugated to biotin. bEND 3 cells are subjected to hypoxia/reperfusion for 9 hours and then lysed on ice in 100 μl of RIPA buffer. Cell lysated are boiled and then electrophoresed in 12% SDS-PAGE acrylamide gels, transferred onto PVDF membranes, and incubated for 1 hour in TBS-T (tris-buffered saline and 0.1% Tween 20) containing 5% bovine serum albumin (BSA). Membranes are then incubated overnight at 4° C. with primary antibodies against occludin (Invitrogen, Calif., USA; 1:1000), claudin-5 (Invitrogen; 1:1000), and ZO-1 (Invitrogen; 1:1000), washed in TBS-T, and incubated for 1 hour at room temperature with corresponding peroxidase-conjugated secondary antibodies (1:5000; KPL, Gaithersburg, Md.). All blots are stripped and re-incubated with β-actin antibodies (1:5000, Sigma) as a loading control. The peroxidase reaction is developed with an ECL-plus detection kit (Amersham BioScience, Piscataway, N.J.). Intensity of the bands is measured by an Image Gauge version. 4.0 program (FUJI Photo Film Co., Ltd).
The bEnd 3 cells grown to confluence on coverslips are subjected to the indicated treatments. […]
(§3) To mimic ischemia-like conditions in vitro, immortalized mouse brain endothelial (bEND3) cells were exposed to 6 hours of hypoxia and 3 hours of reoxygeneation with or without the administration of tPA at a dose of 20 μ/ml. […] BBB integrity was evaluated by transendothelial membrane electrical resistance (TEER) measurement, MMP-9 activity, and the alteration of tight junction proteins following in vitro H/R injury.

MMP-2 = test: Permanent MCAO in rats: MMP-2 in peri-infarct cortex (Western blot, gelatin zymography, immunohistochemistry); assay type: in vivo, rat; conditions: for Expression of MMP-2 (immunohistochemistry): pMCAO, brain section; for Expression of MMP-2 (immunohistochemistry) / MMP-2 activity/levels (gelatin zymography): peri-infarct cortex at 72 hours; for Expression of MMP-2 (Western blot) / MMP-2 activity/levels (gelatin zymography): permanent MCAO; for Expression of MMP-2 (Western blot): 8 mg/kg i.p. 1 hour and s.c. 6 hours post-occlusion, peri-infarct cortex at 72 hours post-MCAO; for MMP-2 activity/levels (gelatin zymography): 8 mg/kg
Excerpt: (§4) Permanent focal cerebral ischemia is induced in the rat by direct ligation of the MCA. Peri-operative procedures and physiological monitoring are done similarly to those for thrombotic stroke surgery. Briefly, under anesthesia, the left CCA is isolated through a ventral midline neck incision and ligated permanently with a 4-0 surgical silk ligature. The left temporoparietal region of the head is shaved and a 2-cm incision is made vertically between the orbit and the ear canal. The underlying temporalis muscle is excised, and under direct visualization, the […] MCA is exposed through a 2-mm burr hole drilled 2 mm rostral to the fusion of the zygomatic arch with the squamosal bone. Drilling is performed under saline irrigation to the area throughout the procedure to prevent heat injury. […] The site of the occlusion is proximal to the MCA bifurcation, but distal to the origin of the lenticulostriate arteries. Using fine forceps, the dura and arachnoid overlying the MCA is opened and cut. The MCA is cauterized and cut permanently to […] recanalization using a bipolar electrocauterizer without damaging the brain surface. The temporalis muscle and skin is closed in layers, and rats allowed to recover from anesthesia on the heating pad.
(§5) All experimental treatments by injection are made in stock solutions using HBC (2-hydroxypropyl-β-cyclodextrin, 25% w/v solution in H2O) as the solvent. The HBC vehicle allows progesterone and allopregnanolone to be dissolved in a non-toxic aqueous solution. The initial dose of progesterone is given intraperitoneally for rapid absorption; all other injections are given subcutaneously. A simlar protocol may be followed for allopregnanolone.
as §2
(§6) Rats were randomly assigned to receive progesterone (n=5), allopregnanolone (n=5), or vehicle (n=5). Progesterone and allopregnanolone (8 mg/kg) were dissolved in 22.5% 2-hydroxypropyl-β-cyclodextrin (25% w/v solution in water) (HBC) and given by intraperitoneal injection 1 hour post-occlusion. An additional 8 mg/kg subcutaneous injection was given 6 hours after middle cerebral artery occlusion (MCAO).
(§7) The rats were euthanized at 72 hours post-MCAO. The peri-infarct region was sampled using a 4-mm tissue punch.

MMP-9 [1] = test: Permanent MCAO in rats: MMP-9 in peri-infarct cortex (Western blot, gelatin zymography, immunohistochemistry); assay type: in vivo, rat; conditions: for Expression of MMP-9 (immunohistochemistry): pMCAO, brain section; for Expression of MMP-9 (immunohistochemistry) / MMP-9 activity/levels (gelatin zymography): peri-infarct cortex at 72 hours; for Expression of MMP-9 (Western blot) / MMP-9 activity/levels (gelatin zymography): permanent MCAO; for Expression of MMP-9 (Western blot): 8 mg/kg i.p. 1 hour and s.c. 6 hours post-occlusion, peri-infarct cortex at 72 hours post-MCAO; for MMP-9 activity/levels (gelatin zymography): 8 mg/kg
Excerpt: as §4, §5, §2, §6, §7

claudin-5 = test: Claudin-5 in H/R-treated bEND3 cells (Western blot); assay type: cell-based, mouse; conditions: tPA with H/R
Experimental: as §1
Peri-infarct cortical tissue is processed for protein analysis. Tissues are homogenized in T-per (Pierce, Rockford, Ill.) containing protease inhibitor cocktail (P8340, Sigma). Homogenates are centrifuged for 15 minutes at 13,000 g. […] Intensity of the bands is measured by an Image Gauge version. […]
as §3

MMP-9 [2] = test: Active MMP-9 fluorometric FRET peptide assay of ischemic cortex lysates; assay type: in vivo, rat; conditions: 24 hours after ischemia; tPA at 4.5 hours; vs control and tMCAO groups
Experimental: A Fluorimetric SensoLyte™ 490 kit (AnaSpec Corp., San Jose, Calif. USA) is used to quantify the specific enzymetic activity of active MMP-9 by using a fluorescence resonance energy transfer peptide containing a fluorescent donor and quenching acceptor (Lin, Hou et al. 2008). The samples (100 μg) are placed in a 96-well plate containing 50 μl of assay buffer. The proteolytic resonance energy transfer peptide is expressed as a fold change in fluorescence intensity at excitation of 355 nm/emission of 460 nm.
For in vivo evaluation, Male SD rats were subjected to MCAO, reperfused at 4.5 hours and then treated with tPA only (5 mg/kg body weight via femoral vein) at 4.5 hours post-stroke or with progesterone (intraperitoneally) at 2 hours post-stroke plus tPA at 4.5 hours post-stroke. Rats were killed at 24 hours post-ischemia and their brains perfused for evaluation of cerebral hemorrhage, brain swelling, BBB permeability, MMP-9 activity, and the alteration of tight junction proteins.
To directly determine MMP-9 activity after ischemia, proteolytic activity of MMP-9 was measured using a fluorescence resonance energy transfer peptide. […] Consistent with the Western blot results, exposure of cells to H/R and tPA for 9 hours reduced the detected levels of occludin, as compared to control bEND 3 cells, while MMP-9 levels were increased in cells exposed to H/R and tPA for 9 hours.

[3] = test system: blood-brain barrier (BBB); test: BBB disruption: serum IgG in ischemic cortex by Western blot; assay type: in vivo, rat; conditions: progesterone 8 mg/kg, s.c.; with tPA; 24 hours after injury
MMP-9 [4] = test: MMP-9 levels in bEND3 cells exposed to H/R and tPA; assay type: cell-based, mouse; conditions: bEND3 cells exposed to H/R and tPA for 9 hours; progesterone pretreatment
Experimental: The bEnd 3 cells grown to confluence on coverslips are subjected to the indicated treatments. For […], cells are washed three times with PBS, fixed in 3% paraformaldehyde for 10 minutes, permeabilized with 02% Triton X-100 in PBS for 10 minutes and blocked with 10% BSA and 0.1% Triton X-100 in PBS for 1 hour. After washing with PBS, the monolyers are incubated with a primary antibody for occludin (Invitrogen, 1:200) and MMP-9 (Abeam, Mass., USA, 1:200) overnight at 4° C. The cell monolayers are then washed 3 times with PBS and incubated with Alexa Fluor 488 anti-rabbit and orange anti-mouse (Molecular Probes, Eugene, Oreg.) for 1 hour. After washing in PBS, the coverslips are mounted on glass slides with Vectasheild with dapi (Vecta Laboratories).
as §3
To directly determine MMP-9 activity after ischemia, proteolytic activity of MMP-9 was measured using a fluorescence resonance energy transfer peptide. […]

bEND3 cells = test: Transendothelial electrical resistance (TEER) after hypoxia/reperfusion (H/R); assay type: cell-based, mouse
Experimental: as §1
The electrical resistance across the membrane are measured using an Millicell ERS Voltohmmeter (Millipore, Billerica, Mass.). The extracellular matrix-treated Transwell inserts are placed in 12-well plates containing culture medium and then used to measure the background resistance. The resistance measurements of these blank filters are then subtracted from those of filters with cells. Values are shown as Q. based on culture inserts.
To mimic ischemia-like conditions in vitro, immortalized mouse brain endothelial (bEND3) cells were exposed to 6 hours of hypoxia and 3 hours of reoxygeneation with or without the administration of tPA at a dose of 20 μ/ml. Reoxygenation was initiated by adding glucose (4.5 g/L)-containing phenol red-free DMEM for 3 hours at 37° C. in 95% air and 5% CO2. The cells were treated with various concentrations progesterone for 24 hours before hypoxia/reperfusion (H/R). BBB integrity was evaluated by transendothelial membrane electrical resistance (TEER) measurement, MMP-9 activity, and the alteration of tight junction proteins following in vitro H/R injury.

Structure (SMILES) | Detected levels of occludin (immunofluorescence) (occludin; bEND3 cells exposed to H/R and tPA for 9 hours, progesterone pretreatment) | Expression of occludin (Western blot) (occludin; bEND3 cells, tPA with H/R) | Expression of MMP-2 (immunohistochemistry) (MMP-2) | Expression of MMP-2 (Western blot) (MMP-2) | MMP-2 activity/levels (gelatin zymography) (MMP-2) | Expression of MMP-9 (immunohistochemistry) (MMP-9 [1]) | Expression of MMP-9 (Western blot) (MMP-9 [1]) | MMP-9 activity/levels (gelatin zymography) (MMP-9 [1]) | Expression of 23-kDa claudin-5 (Western blot) (claudin-5) | MMP-9 activity (FRET peptide) (MMP-9 [2]) | Levels of serum IgG in ischemic cortex [3] | MMP-9 levels (MMP-9 [4]) | H/R-induced decrease of TEER (bEND3 cells; pretreatment with 5, 10 or 20 μM, H/R without tPA) | TEER values compared to untreated (bEND3 cells; progesterone 20 μM, H/R with tPA (FIG. 3C))
CC(=O)[C@H]1CC[C@H]2[C@@H]3CCC4=CC(=O)CC[C@]4(C)[C@H]3CC[C@]12C [progesterone, pregn-4-ene-3,20-dione] | completely inhibited | significantly prevented the decrease | reduced | decreased | decreased | reduced | decreased | decreased | significantly prevented the decrease | inhibited | reduced | completely inhibited | significantly prevented | significantly higher
CC(=O)[C@H]1CC[C@H]2[C@@H]3CC[C@H]4C[C@H](O)CC[C@]4(C)[C@H]3CC[C@]12C [allopregnanolone, 3α-hydroxy-5α-pregnan-20-one] | – | – | reduced | decreased | decreased | reduced | decreased | decreased | – | – | – | – | – | –
